Results reported in ChEMBL document CHEMBL3526145, “Metabolism, excretion, and pharmacokinetics of ((3,3-difluoropyrrolidin-1-yl)((2S,4S)-4-(4-(pyrimidin-2-yl)piperazin-1-yl)pyrrolidin-2-yl)methanone, a dipeptidyl peptidase inhibitor, in rat, dog and human” (Drug Metab Dispos, 2012).

What was measured:
[1] = Drug excretion in Sprague-Dawley rat urine at 5 mg/kg, po administered as single dose; format: ADME, organism-based; parameters: dose 5 mg/kg, route oral; details: read-out: Drug excretion
[2] = Drug excretion in human urine at […], po administered as single dose; format: ADME, organism-based; parameters: route oral; details: read-out: Drug excretion
[3] = Drug excretion in human feces at […], po administered as single dose; format: ADME, organism-based; parameters: route oral; details: faeces, read-out: Drug excretion
Homo sapiens [4] = test: Cmax in human at […], po administered as single dose; format: ADME, organism-based; parameters: route oral; details: in vivo
[5] = Drug excretion in Sprague-Dawley rat feces at 5 mg/kg, po administered as single dose; format: ADME, organism-based; parameters: dose 5 mg/kg, route oral; details: faeces, read-out: Drug excretion
Homo sapiens [6] = test: AUC (0 to 168 hrs) in human at […], po administered as single dose; format: ADME, organism-based, Plasma; parameters: time < 168 hr, route oral; details: in vivo
[7] = Drug recovery in bile of bile duct-cannulated Sprague-Dawley rat at 5 mg/kg, po administered as single dose by LC-MS/MS method; format: ADME, organism-based; parameters: dose 5 mg/kg, route oral; details: read-out: Drug recovery
[8] = Drug excretion in beagle dog urine at 5 mg/kg, po administered as single dose; format: ADME, organism-based, Canis lupus familiaris; parameters: dose 5 mg/kg, route oral; details: read-out: Drug excretion
[9] = Drug excretion in beagle dog feces at 5 mg/kg, po administered as single dose; format: ADME, organism-based, Canis lupus familiaris; parameters: dose 5 mg/kg, route oral; details: faeces, read-out: Drug excretion
[10] = Drug metabolism in bile of bile duct-cannulated male Sprague-Dawley rat assessed as PF-00734200 level at 5 mg/kg, po administered as single dose by LC-MS/MS method; format: ADME, organism-based; parameters: dose 5 mg/kg, route oral; details: in vivo
Homo sapiens [11] = test: AUC (0 to infinity) in human at […], po administered as single dose; format: ADME, organism-based, Plasma; parameters: time infinity, route oral; details: in vivo
[12] = Drug metabolism in bile of bile duct-cannulated female Sprague-Dawley rat assessed as PF-00734200 level at 5 mg/kg, po administered as single dose by LC-MS/MS method; format: ADME, organism-based; parameters: dose 5 mg/kg, route oral; details: in vivo
[13] = Drug recovery in Sprague-Dawley rat at 5 mg/kg, po administered as single dose; format: ADME, organism-based; parameters: dose 5 mg/kg, route oral; details: in vivo, read-out: Drug recovery
[14] = Drug recovery in beagle dog at 5 mg/kg, po administered as single dose; format: ADME, organism-based, Canis lupus familiaris; parameters: dose 5 mg/kg, route oral; details: in vivo, read-out: Drug recovery
[15] = Drug recovery in human at […], po administered as single dose; format: ADME, organism-based; parameters: route oral; details: in vivo, read-out: Drug recovery
[16] = Drug level in urine of human treated with [14C]PF-00734200 at […], po administered as single dose by LC-MS/MS method; format: ADME, organism-based; parameters: route oral; details: in vivo
Homo sapiens [17] = test: Total drug level in human treated with [14C]PF-00734200 assessed as total radio activity at […], po administered as single dose […]; format: ADME, organism-based; parameters: route oral; details: in vivo
[18] = Retention time of the compound by HPLC method; format: physicochemical
Plasma [19] = test: Drug level in beagle dog plasma treated with [14C]PF-00734200 at 5 mg/kg, po administered as single dose by LC-MS/MS method; format: ADME, organism-based, Canis lupus familiaris; parameters: dose 5 mg/kg, route oral; details: in vivo
Serum = test: Drug level in human serum treated with [14C]PF-00734200 at […], po administered as single dose by LC-MS/MS method; format: ADME, organism-based; parameters: route oral; details: in vivo
[20] = Drug level in urine of beagle dog treated with [14C]PF-00734200 at 5 mg/kg, po administered as single dose by LC-MS/MS method; format: ADME, organism-based, Canis lupus familiaris; parameters: dose 5 mg/kg, route oral; details: in vivo
Canis familiaris = test: Total drug level in beagle dog treated with [14C]PF-00734200 assessed as total radio activity at 5 mg/kg, po administered as single dose […]; format: ADME, organism-based, Canis lupus familiaris; parameters: dose 5 mg/kg, route oral; details: in vivo
[21] = Drug level in feces of human treated with [14C]PF-00734200 at […], po administered as single dose by LC-MS/MS method; format: ADME, organism-based; parameters: route oral; details: in vivo
[22] = Drug level in urine of Sprague-Dawley rat treated with [14C]PF-00734200 at 5 mg/kg, po administered as single dose by LC-MS/MS method; format: ADME, organism-based; parameters: dose 5 mg/kg, route oral; details: in vivo
[23] = Drug level in feces of beagle dog treated with [14C]PF-00734200 at 5 mg/kg, po administered as single dose by LC-MS/MS method; format: ADME, organism-based, Canis lupus familiaris; parameters: dose 5 mg/kg, route oral; details: in vivo
Cytochrome P450 2D6 [24] = molecular target: T1, Cytochrome P450 2D6 (Homo sapiens, UniProt P10635); test: Drug level assessed as human CYP2D6-mediated compound formation from PF-00734200 by LC-MS/MS method; format: ADME; details: recombinant enzyme
[25] = Drug level in feces of Sprague-Dawley rat treated with [14C]PF-00734200 at 5 mg/kg, po administered as single dose by LC-MS/MS method; format: ADME, organism-based; parameters: dose 5 mg/kg, route oral; details: in vivo
Cytochrome P450 3A4 [26] = molecular target: T2, Cytochrome P450 3A4 (Homo sapiens, UniProt P08684); test: Drug level assessed as human CYP3A4-mediated compound formation from PF-00734200 by LC-MS/MS method; format: ADME; details: recombinant enzyme
Plasma [27] = test: Drug level in Sprague-Dawley rat plasma treated with [14C]PF-00734200 at 5 mg/kg, po administered as single dose by LC-MS/MS method; format: ADME, organism-based; parameters: dose 5 mg/kg, route oral; details: in vivo
Rattus norvegicus = test: Total drug level in Sprague-Dawley rat treated with [14C]PF-00734200 assessed as total radio activity at 5 mg/kg, po administered as single dose […]; format: ADME, organism-based; parameters: dose 5 mg/kg, route oral; details: in vivo
Cytochrome P450 3A4 [28] = molecular target: T2, Cytochrome P450 3A4; test: Drug metabolism assessed as human CYP3A4-mediated metabolite (3,3-difluoropyrrolidin-1-yl){(2S,4S)-4-[4-(5-hydroxypyrimidin-2-yl)piperazin-1-yl]pyrrolidin-2-yl}methanone formation by LC-MS/MS method; format: ADME; details: recombinant enzyme
Homo sapiens [29] = test: Tmax in human treated with [14C]PF-00734200 at […], po administered as single dose; format: ADME, organism-based; parameters: route oral; details: in vivo
Homo sapiens [30] = test: Oral clearance in human treated with [14C]PF-00734200 at […], po administered as single dose; format: ADME, organism-based; parameters: route oral; details: in vivo
Homo sapiens [31] = test: AUC (0 to infinity) in human treated with [14C]PF-00734200 at […], po administered as single dose; format: ADME, organism-based, Plasma; parameters: route oral, time infinity; details: in vivo
Homo sapiens [32] = test: Elimination half life in human treated with [14C]PF-00734200 at […], po administered as single dose; format: ADME, organism-based; parameters: route oral; details: in vivo
Homo sapiens [33] = test: Cmax in human treated with [14C]PF-00734200 at […], po administered as single dose; format: ADME, organism-based; parameters: route oral; details: in vivo
Cytochrome P450 2D6 [34] = molecular target: T1, Cytochrome P450 2D6; test: Drug metabolism assessed as human CYP2D6-mediated metabolite (3,3-difluoropyrrolidin-1-yl){(2S,4S)-4-[4-(5-hydroxypyrimidin-2-yl)piperazin-1-yl]pyrrolidin-2-yl}methanone formation by LC-MS/MS method; format: ADME; details: recombinant enzyme
Homo sapiens [35] = test: AUC (0 to 168 hrs) in human treated with [14C]PF-00734200 at […], po administered as single dose; format: ADME, organism-based, Plasma; parameters: time < 168 hr, route oral; details: in vivo
[36] = Drug level in bile of bile duct-cannulated Sprague-Dawley rat treated with [14C]PF-00734200 at 5 mg/kg, po administered as single dose by LC-MS/MS method; format: ADME, organism-based; parameters: dose 5 mg/kg, route oral; details: in vivo

T2 sequence (P08684 whole entry): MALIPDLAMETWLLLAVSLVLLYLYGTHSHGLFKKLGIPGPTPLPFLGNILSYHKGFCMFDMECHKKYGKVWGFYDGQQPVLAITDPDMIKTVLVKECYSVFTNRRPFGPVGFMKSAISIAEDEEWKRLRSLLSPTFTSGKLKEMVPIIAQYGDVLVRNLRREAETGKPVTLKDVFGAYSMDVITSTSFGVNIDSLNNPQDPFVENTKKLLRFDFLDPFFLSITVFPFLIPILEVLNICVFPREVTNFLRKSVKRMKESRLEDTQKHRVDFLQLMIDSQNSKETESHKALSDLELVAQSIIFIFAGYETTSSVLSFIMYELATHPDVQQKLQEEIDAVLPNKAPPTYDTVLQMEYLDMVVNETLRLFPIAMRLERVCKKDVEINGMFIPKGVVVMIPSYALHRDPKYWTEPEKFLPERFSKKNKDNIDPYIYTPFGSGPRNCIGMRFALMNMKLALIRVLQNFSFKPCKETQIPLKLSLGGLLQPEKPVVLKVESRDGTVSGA
T1 sequence (P10635 whole entry): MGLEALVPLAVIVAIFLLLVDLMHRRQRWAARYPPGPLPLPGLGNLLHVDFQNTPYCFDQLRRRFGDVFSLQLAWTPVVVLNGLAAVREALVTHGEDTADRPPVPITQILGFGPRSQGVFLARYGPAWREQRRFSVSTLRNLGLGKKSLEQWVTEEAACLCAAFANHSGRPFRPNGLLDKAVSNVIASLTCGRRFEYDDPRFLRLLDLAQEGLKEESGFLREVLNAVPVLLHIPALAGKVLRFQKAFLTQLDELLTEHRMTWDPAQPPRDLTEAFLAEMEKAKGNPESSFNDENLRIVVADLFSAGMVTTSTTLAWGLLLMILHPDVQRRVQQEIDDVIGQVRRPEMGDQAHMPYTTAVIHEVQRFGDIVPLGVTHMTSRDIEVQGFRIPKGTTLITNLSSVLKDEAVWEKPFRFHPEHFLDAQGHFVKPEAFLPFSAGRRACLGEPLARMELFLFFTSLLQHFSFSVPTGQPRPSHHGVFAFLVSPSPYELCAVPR

Drug uptake [16]	Drug uptake (Homo sapiens [17])	Retention_time [18]	Drug uptake (Plasma [19])	Drug uptake [20]	Drug uptake (Canis familiaris)	Drug uptake [22]	Drug uptake [25]	Drug uptake (Plasma [27])	Drug uptake (Rattus norvegicus)	Compound	further results
										O=C([C@@H]1C[C@H](N2CCN([14c]3ncccn3)CC2)CN1)N1CCC(F)(F)C1	dose excreted [1]: 30.8%; dose excreted [2]: 76.8%; dose excreted [3]: 10.4%; Cmax (Homo sapiens [4]): 274 ng.Eq/ml; dose excreted [5]: 66%; AUC (Homo sapiens [6]): 2490 ng.Eq.hr/ml; dose excreted [7]: 62.1%; dose excreted [8]: 66.7%; dose excreted [9]: 16.8%; Drug metabolism [10]: metabolite_not_detected; AUC (Homo sapiens [11]): 2850 ng.Eq.hr/ml; Drug metabolism [12]: metabolite_not_detected; dose excreted [13]: 97.1%; dose excreted [14]: 92.2%; dose excreted [15]: 87.2%
1%	1%	30.2 min								NC(=O)N1C[C@@H](N2CCN(c3ncccn3)CC2)C[C@H]1C(=O)N1CCC(F)(F)C1	
		24.5 min	1.8%							O=C(O)[C@H]1O[C@@H](OC(=O)N2C[C@@H](N3CCN(c4ncc(O)cn4)CC3)C[C@H]2C(=O)N2CCC(F)(F)C2)[C@H](O)[C@@H](O)[C@@H]1O	
6%	6%	28.2 min	1.5%	1.6%						O=C(O)[C@H]1O[C@@H](OC(=O)N2C[C@@H](N3CCN(c4ncccn4)CC3)C[C@H]2C(=O)N2CCC(F)(F)C2)[C@H](O)[C@@H](O)[C@@H]1O	Drug uptake (Serum): 1.2%
17.9%	20.6%	25.5 min	13.7%	30.1%	39.1%	7.3%	32.3%	2.7%	39.6%	O=C([C@@H]1C[C@H](N2CCN(c3ncc(O)cn3)CC2)CN1)N1CCC(F)(F)C1	Drug uptake [21]: 2.7%; Drug uptake [23]: 9%; Drug metabolism (Cytochrome P450 2D6 [24]): metabolite_detected; Drug metabolism (Cytochrome P450 3A4 [26]): metabolite_detected; Drug uptake (Serum): 4%
48.5%	48.9%		80.1%	25.6%	27.4%	11%	1.1%	79.9%	12.1%	O=C([C@@H]1C[C@H](N2CCN(c3ncccn3)CC2)CN1)N1CCC(F)(F)C1 [GOSOGLIPTIN]	Drug metabolism (Cytochrome P450 3A4 [28]): metabolite_detected; Drug uptake [21]: 0.4%; Tmax (Homo sapiens [29]): 1 h; CL/F (Homo sapiens [30]): 125.3 mL/min; Drug uptake [23]: 1.8%; AUC (Homo sapiens [31]): 2660 ng·h/mL; beta t1/2 (Homo sapiens [32]): 63.5 h; Drug uptake (Serum): 94.5%; Cmax (Homo sapiens [33]): 241.3 ng/mL; Drug metabolism (Cytochrome P450 2D6 [34]): metabolite_detected; AUC (Homo sapiens [35]): 2560 ng·h/mL
		26 min		0.6%						NC(=O)N1C[C@@H](N2CCN(c3ncc(O)cn3)CC2)C[C@H]1C(=O)N1CCC(F)(F)C1	
1.1%	2.3%	5.6 min	1%	2.5%	2.5%	3.2%	2.3%	8.4%	5.5%	O=C(O)[C@@H]1C[C@H](N2CCN(c3ncccn3)CC2)CN1	Drug uptake [21]: 1.2%
0.9%	0.9%	29.2 min								O=C([C@@H]1C[C@H](N2CCN(c3ncccn3)CC2)CN1[C@@H]1O[C@H](CO)[C@@H](O)[C@H](O)[C@H]1O)N1CCC(F)(F)C1	
		14.3 min	0.4%	1%	1%	2.9%		4.7%	2.9%	O=C(O)[C@H]1O[C@@H](Oc2cnc(N3CCN([C@@H]4CN[C@H](C(=O)N5CCC(F)(F)C5)C4)CC3)nc2)[C@H](O)[C@@H](O)[C@@H]1O	Drug uptake [36]: 50.4%
	3%	3 min	0.8%	1.2%	5.8%	3.1%	17.8%	2.6%	20.9%	N=C(N)N1CCN([C@@H]2CN[C@H](C(=O)N3CCC(F)(F)C3)C2)CC1	Drug uptake [21]: 3%; Drug uptake [23]: 4.6%; Drug uptake [36]: 7.3%
		28.2 min								O=C([C@@H]1C[C@H](N2CCN(c3ncc(O)cn3)CC2)CN1[C@@H]1O[C@H](CO)[C@@H](O)[C@H](O)[C@H]1O)N1CCC(F)(F)C1	
0.1%	0.1%	20.1 min					0.1%		0.1%	N=C(N)N1CCN([C@H]2C[C@@H](C(=O)N3CCC(F)(F)C3)N(C=O)C2)CC1	
		24.5 min	1.8%	2.6%						O=C([C@@H]1C[C@H](N2CCN(c3ncc(OS(=O)(=O)O)cn3)CC2)CN1)N1CCC(F)(F)C1	Drug uptake [36]: 2.1%
		27.4 min					5.5%		5.5%	O=CN1C[C@@H](N2CCN(c3ncc(O)cn3)CC2)C[C@H]1C(=O)N1CCC(F)(F)C1	

Compound	Drug uptake [16]	Drug uptake (Homo sapiens [17])	Retention_time [18]	Drug uptake (Plasma [19])	Drug uptake [20]	Drug uptake (Canis familiaris)	Drug uptake [22]	Drug uptake [25]	Drug uptake (Plasma [27])	Drug uptake (Rattus norvegicus)	further results
c1cnc(N2CCNCC2)nc1 [2-PIPERAZIN-1-YL-PYRIMIDINE]			6.5 min	0.7%	0.9%	0.9%	1.4%		1.7%	1.4%	
